According to US11786534B2 (TAIHO PHARMACEUTICAL CO., LTD., priority 2019, dated 2023):
Read-outs that look alike come from different tables or passages of the source. One block for each molecule: values may come before it.

Key:
[1] = target: T1, human EGFR (d746-750/C797S) (Homo sapiens, UniProt P00533, C797S/DEL746-750); assay: Inhibitory activity against EGFR (d746-750/C797S) kinase; type: biochemical; conditions: Test Example 1, Table 4; ATP 14 μM, 60 minutes
T1 construct: purchased SignalChem
T1 sequence (P00533 with tags, fused parts or gaps DEL746-750/C797S): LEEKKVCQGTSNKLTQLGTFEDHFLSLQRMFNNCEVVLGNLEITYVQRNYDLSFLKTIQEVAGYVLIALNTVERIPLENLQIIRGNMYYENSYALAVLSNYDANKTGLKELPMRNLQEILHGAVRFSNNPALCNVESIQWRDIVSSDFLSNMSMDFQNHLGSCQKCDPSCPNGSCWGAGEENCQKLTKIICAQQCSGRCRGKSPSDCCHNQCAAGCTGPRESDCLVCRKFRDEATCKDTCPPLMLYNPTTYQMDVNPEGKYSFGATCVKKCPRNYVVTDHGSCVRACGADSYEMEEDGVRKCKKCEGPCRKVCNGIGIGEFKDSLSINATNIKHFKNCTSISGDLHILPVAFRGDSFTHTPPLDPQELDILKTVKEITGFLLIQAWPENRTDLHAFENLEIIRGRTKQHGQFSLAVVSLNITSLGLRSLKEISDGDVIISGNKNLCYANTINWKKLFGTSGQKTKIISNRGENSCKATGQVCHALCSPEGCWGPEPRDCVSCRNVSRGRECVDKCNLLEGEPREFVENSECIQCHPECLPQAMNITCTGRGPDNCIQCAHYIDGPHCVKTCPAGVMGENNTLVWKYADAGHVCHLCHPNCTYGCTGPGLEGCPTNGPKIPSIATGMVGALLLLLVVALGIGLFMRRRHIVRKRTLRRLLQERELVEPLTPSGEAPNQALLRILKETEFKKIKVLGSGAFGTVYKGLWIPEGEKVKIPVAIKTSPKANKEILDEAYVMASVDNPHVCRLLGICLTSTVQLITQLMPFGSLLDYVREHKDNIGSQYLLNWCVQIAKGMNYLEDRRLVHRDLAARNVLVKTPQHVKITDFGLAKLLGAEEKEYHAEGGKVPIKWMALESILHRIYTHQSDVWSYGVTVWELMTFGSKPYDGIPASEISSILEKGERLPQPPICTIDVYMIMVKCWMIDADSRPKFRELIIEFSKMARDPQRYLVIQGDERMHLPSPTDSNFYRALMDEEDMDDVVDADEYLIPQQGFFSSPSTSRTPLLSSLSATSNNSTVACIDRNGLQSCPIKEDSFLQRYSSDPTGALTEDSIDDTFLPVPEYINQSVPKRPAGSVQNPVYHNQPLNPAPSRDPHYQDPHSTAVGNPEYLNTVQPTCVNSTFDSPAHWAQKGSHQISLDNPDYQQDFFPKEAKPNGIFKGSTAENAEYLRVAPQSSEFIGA
How it was run: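 Recombinant human EGFR d746-750/C797S in 13.5 mM Tris pH 7.5 with 2 mM DTT and 0.009% Tween-20. Reaction ran 60 min with 14 μM ATP, 20 mM MgCl2 and 12.5 mM MnCl2, stopped by 40 mM EDTA. IC50 in nM.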

human EGFR (WT) = target: T2, human EGFR (WT) (Homo sapiens, UniProt P00533); assay: Inhibitory activity against EGFR (WT) kinase; type: biochemical; conditions: Test Example 1, Table 6; ATP 1.5 μM
T2 construct: purchased Carna Biosciences Inc., Japan
T2 sequence (P00533 25-1210): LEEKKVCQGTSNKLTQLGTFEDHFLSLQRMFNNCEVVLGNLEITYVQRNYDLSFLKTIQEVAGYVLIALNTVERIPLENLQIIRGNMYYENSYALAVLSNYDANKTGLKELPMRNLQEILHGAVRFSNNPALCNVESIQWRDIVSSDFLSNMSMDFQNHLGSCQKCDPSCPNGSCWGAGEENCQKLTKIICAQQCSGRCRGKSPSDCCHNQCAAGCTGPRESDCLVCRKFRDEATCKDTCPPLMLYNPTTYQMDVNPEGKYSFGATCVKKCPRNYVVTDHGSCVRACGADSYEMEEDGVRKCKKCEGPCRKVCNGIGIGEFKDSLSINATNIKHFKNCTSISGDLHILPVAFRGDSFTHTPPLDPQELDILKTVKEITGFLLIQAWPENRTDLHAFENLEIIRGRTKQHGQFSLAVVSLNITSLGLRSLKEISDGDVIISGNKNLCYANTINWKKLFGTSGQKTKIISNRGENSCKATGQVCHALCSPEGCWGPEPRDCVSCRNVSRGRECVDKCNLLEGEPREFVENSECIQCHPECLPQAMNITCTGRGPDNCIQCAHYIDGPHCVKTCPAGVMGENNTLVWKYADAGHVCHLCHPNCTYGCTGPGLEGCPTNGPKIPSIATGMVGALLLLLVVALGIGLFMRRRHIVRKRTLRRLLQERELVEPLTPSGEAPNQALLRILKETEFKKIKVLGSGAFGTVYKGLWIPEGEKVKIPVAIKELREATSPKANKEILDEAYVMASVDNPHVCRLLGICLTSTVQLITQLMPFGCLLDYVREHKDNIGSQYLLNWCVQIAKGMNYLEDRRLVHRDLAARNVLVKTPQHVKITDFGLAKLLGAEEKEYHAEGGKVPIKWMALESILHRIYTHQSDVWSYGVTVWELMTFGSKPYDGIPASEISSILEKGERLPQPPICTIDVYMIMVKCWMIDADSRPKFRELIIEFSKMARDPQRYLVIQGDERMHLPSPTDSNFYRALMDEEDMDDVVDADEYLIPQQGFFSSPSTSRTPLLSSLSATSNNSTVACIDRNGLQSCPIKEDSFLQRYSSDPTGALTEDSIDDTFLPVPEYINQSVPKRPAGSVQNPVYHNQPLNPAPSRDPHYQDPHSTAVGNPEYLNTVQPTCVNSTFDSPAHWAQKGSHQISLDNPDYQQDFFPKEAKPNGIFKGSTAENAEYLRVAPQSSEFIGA
How it was run: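 Purified recombinant human wild-type EGFR kinase, with ATP at 1.5 μM final. Compound inhibition of kinase activity read out and fitted to give IC50 (nM).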

human EGFR (L858R/C797S) = target: T3, human EGFR (L858R/C797S) (Homo sapiens, UniProt P00533, C797S/L858R); assay: Inhibitory activity against EGFR (L858R/C797S) kinase; type: biochemical; conditions: Test Example 1, Table 5; ATP 4 μM, 90 minutes
T3 construct: purchased SignalChem
T3 sequence (P00533 25-1210 C797S/L858R): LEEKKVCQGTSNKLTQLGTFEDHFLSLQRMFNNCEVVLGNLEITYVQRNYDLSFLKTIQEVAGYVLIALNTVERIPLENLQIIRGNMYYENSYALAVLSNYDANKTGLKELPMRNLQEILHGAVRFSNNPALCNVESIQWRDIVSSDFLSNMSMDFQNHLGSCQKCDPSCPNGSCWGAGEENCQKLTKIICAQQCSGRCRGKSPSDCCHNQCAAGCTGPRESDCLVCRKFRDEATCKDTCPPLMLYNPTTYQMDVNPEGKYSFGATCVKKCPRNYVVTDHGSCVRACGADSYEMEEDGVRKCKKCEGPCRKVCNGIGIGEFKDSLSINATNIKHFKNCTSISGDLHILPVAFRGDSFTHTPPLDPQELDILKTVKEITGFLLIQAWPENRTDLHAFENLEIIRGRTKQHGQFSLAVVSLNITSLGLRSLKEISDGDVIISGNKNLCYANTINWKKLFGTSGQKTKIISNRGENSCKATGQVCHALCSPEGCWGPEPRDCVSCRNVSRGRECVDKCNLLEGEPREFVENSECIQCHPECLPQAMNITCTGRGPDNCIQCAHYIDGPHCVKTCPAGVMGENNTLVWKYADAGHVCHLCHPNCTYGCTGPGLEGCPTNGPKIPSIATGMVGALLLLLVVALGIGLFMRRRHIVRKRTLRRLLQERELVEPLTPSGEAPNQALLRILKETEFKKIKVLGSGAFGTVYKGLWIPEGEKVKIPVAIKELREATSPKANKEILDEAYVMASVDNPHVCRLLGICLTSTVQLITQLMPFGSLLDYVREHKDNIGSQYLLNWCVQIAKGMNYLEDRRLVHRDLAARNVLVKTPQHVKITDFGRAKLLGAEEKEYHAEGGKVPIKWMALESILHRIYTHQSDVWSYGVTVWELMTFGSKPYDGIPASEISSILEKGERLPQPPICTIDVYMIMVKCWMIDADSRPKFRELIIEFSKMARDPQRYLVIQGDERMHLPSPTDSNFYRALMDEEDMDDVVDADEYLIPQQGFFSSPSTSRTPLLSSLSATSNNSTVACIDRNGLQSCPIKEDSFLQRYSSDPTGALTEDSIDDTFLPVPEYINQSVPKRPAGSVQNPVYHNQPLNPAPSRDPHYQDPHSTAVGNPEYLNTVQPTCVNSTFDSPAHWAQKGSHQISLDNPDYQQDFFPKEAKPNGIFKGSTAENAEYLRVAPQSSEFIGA
How it was run: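 Purified recombinant human EGFR (C797S/L858R) kinase, final ATP 4 μM, 90-minute kinase reaction, otherwise per the EGFR (d746-750/C797S) protocol. IC50 (nM) determined from inhibition data.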

[2] = target: Ba/F3-EGFR (d746-750/T790M/C797S) (Homo sapiens, UniProt P00533, DEL746-750/T790M/C797S, cells depend on it); assay: Growth inhibition of cell line expressing EGFR (d746-750/T790M/C797S); type: cell-based, mouse; conditions: read-out: BaF3_EGFR (d746-750/T790M/C797S) IC50 value
Ba/F3-EGFR (d746-750/T790M/C797S), sequence (P00533 with tags, fused parts or gaps DEL746-750/T790M/C797S): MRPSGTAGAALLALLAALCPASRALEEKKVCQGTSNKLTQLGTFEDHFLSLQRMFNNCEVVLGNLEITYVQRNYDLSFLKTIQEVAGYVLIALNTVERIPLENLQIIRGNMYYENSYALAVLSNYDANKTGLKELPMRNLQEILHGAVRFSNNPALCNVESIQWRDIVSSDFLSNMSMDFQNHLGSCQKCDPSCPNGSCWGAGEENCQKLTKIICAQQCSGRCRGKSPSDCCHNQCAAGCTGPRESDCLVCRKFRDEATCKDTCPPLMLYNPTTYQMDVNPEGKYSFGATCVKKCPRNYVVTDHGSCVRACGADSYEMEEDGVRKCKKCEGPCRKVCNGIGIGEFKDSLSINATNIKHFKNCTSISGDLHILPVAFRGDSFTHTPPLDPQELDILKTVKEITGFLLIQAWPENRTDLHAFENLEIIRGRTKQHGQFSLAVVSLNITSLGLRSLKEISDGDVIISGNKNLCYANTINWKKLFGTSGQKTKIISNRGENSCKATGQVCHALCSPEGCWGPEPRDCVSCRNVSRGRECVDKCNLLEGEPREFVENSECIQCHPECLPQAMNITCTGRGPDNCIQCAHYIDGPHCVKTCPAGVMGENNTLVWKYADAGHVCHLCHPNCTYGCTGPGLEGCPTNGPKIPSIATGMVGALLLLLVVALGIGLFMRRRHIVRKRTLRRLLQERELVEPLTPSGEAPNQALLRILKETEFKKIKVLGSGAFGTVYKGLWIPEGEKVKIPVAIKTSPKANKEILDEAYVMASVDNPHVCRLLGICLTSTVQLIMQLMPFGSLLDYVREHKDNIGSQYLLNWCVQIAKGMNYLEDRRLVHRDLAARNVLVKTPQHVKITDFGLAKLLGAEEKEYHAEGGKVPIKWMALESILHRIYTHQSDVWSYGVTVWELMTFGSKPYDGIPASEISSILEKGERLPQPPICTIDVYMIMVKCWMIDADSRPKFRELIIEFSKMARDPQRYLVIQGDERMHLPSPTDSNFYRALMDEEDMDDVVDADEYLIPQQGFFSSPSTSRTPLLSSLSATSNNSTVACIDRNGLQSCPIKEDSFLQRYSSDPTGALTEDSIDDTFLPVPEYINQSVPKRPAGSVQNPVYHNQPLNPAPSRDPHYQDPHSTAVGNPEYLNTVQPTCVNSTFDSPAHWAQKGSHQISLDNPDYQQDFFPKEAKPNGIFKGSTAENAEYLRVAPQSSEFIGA
Description: (§1) Test for inhibitory activity against the growth of cell lines expressing wild-type and mutated EGFRs (in vitro)
(§2) (1) Mouse cell line Ba/F3-EGFR (d746-750/T790M/C797S) transfected with and stably expressing EGFR (d746-750/T790M/C797S), mouse cell Ba/F3-EGFR (L858R/T790M/C797S) transfected with and stably expressing EGFR (L858R/T790M/C797S), and mouse cell line Ba/F3-EGFR (WT) transfected with and stably expressing wild-type EGFR were each suspended in RPMI-1640 cell culture medium (RPMI-1640, 10% FBS, 100 unit/ml penicillin, 0.1 mg/ml streptomycin). In the case of the mouse cell line Ba/F3-EGFR (WT), RPMI-1640 cell culture medium containing EGF at a final concentration of 50 ng/ml was used to suspend this cell line. It should be noted that the mouse cell line Ba/F3-EGFR (d746-750/T790M/C797S) transfected with and stably expressing EGFR (d746-750/T790M/C797S), the mouse cell line Ba/F3-EGFR (L858R/T790M/C797S) transfected with and stably expressing EGFR (L858R/T790M/C797S) and the mouse cell line Ba/F3-EGFR (WT) transfected with and stably expressing wild-type EGFR were prepared by using nucleotide sequences encoding the proteins of SEQ ID NOs: 1 and 2 in accordance with Test Example 1 in WO2018/079310, These cell suspensions were seeded in wells of 96-well flat -bottomed plates. The compounds of the present invention were dissolved in DMSO, and serial dilutions of these test compounds were prepared with DMSO (1000-fold of the final concentration). Each test compound solution in DMSO or DMSO alone was diluted with RPMI-1640 cell culture medium for each cell line, and this dilution was added to wells of the cell culture plate such that the final concentration of DMSO was 0.1%, followed by culture at 37° C. for 3 days in a 5% carbon dioxide gas-containing incubator. Before and after addition of each test compound solution in DMSO, the number of cells was counted using the CellTiter-Glo® system (Promega) on the basis of the protocol recommended by Promega.
(§3) In each cell line, the rate of cell growth inhibition was calculated according to the equation shown below in wells to which each test compound was added at different concentrations. Moreover, the inhibition rate at each concentration was plotted for each test compound, and the concentration of each test compound required to give 50% cell survival rate, i.e., IC50 (nM) was determined by curve fitting software XLfit (IDBS).
(§4) Cell survival rate (%)=T/C×100
(§5) T: emission intensity in a well cultured for 3 days after addition of a test compound solution
(§6) C: emission intensity in a well cultured for 3 days after addition of DMSO
(§7) In accordance with the same procedures as shown in Test Example 2, the compounds of the present invention were tested for their inhibitory activity against the growth of the cell hoes expressing wild-type and mutated EGFRs.

Ba/F3-EGFR (WT) = Ba/F3-EGFR (WT) (Homo sapiens, UniProt P00533); assay: Growth inhibition of cell line expressing wild-type EGFR; type: cell-based, mouse; conditions: read-out: BaF3_EGFR (WT) IC50 value
Description: as §1, §2, §3, §4, §5, §6, §7

[3] = Test Example 4, Table 13, same procedures as Test Example 2
[4] = Test Example 2, Table 7, culture 3 days, CellTiter-Glo
[5] = Test Example 2, Table 7, culture 3 days, EGF 50 ng/ml, CellTiter-Glo

Structure (SMILES): C#Cc1c(-c2cnc3ccccc3c2)c2c(N)ncnc2n1[C@@H]1CCN(C(=O)C=C)C1 [Comparative Example B, (R)-1-(3-(4-Amino-6-ethynyl-5-(quinolin-3-yl)-7H-pyrrolo[2,3-d]pyrimidin-7-yl) -pyrrolidin-1-yl)-prop-2-en-1-one, reference compound]
IC50 [1]: 93 nM | IC50 (human EGFR (WT)): 0.95 nM | IC50 (human EGFR (L858R/C797S)): 97 nM | GI50 [2, 4]: 1080 nM | GI50 (Ba/F3-EGFR (WT); [5]): 1050 nM

Structure (SMILES): C#Cc1c(-c2cnc3ccccc3c2)c2c(N)ncnc2n1C12CCC(NC(=O)c3cccnc3)(CC1)C2 [Example 45]
IC50 [1]: 0.67 nM | IC50 (human EGFR (WT)): 1.9 nM | IC50 (human EGFR (L858R/C797S)): 0.53 nM | GI50 [2, 4]: 42 nM | GI50 (Ba/F3-EGFR (WT); [5]): 3400 nM

Structure (SMILES): C#Cc1c(-c2cnc3ccccc3c2)c2c(N)ncnc2n1C12CCC(NC(=O)c3nccs3)(CC1)C2 [Example 53]
IC50 [1]: 0.88 nM | IC50 (human EGFR (WT)): 1.9 nM | IC50 (human EGFR (L858R/C797S)): 1.2 nM | GI50 [2, 3]: 162 nM | GI50 (Ba/F3-EGFR (WT); [3]): 3290 nM

Structure (SMILES): C#Cc1c(-c2cnc3ccccc3c2)c2c(N)ncnc2n1C12CCC(NC(=O)c3ccc4ncnn4c3)(CC1)C2 [Example 16, N-(4-(4-Amino-6-ethynyl-5-(quinolin-3-yl)-7H-pyrrolo[2,3-d]pyrimidin-7-yl)bicyclo-[2.2.1]heptan-1-yl)-[1.2.4]triazolo[1,5-a]pyrimidin-6-carboxamide]
IC50 [1]: 0.45 nM | IC50 (human EGFR (WT)): 0.53 nM | IC50 (human EGFR (L858R/C797S)): 0.49 nM | GI50 [2, 3]: 32 nM | GI50 (Ba/F3-EGFR (WT); [3]): 1920 nM

Structure (SMILES): C#Cc1c(-c2cnc3ccccc3c2)c2c(N)ncnc2n1C12CCC(NC(=O)c3cnc(C)cn3)(CC1)C2 [Example 37, N-(4-(4-Amino-6-ethynyl-5-(quinolin-3-yl)-7H-pyrrolo[2,3-d]pyrimidin-7-yl)-bicyclo-[2.2.1]heptan-1-yl)-5-methylpyrazine-2-carboxamide]
IC50 [1]: 0.5 nM | IC50 (human EGFR (WT)): 0.92 nM | IC50 (human EGFR (L858R/C797S)): 0.69 nM | GI50 [2, 4]: 21 nM | GI50 (Ba/F3-EGFR (WT); [5]): 2970 nM

Structure (SMILES): C#Cc1c(-c2cnc3ccccc3c2)c2c(N)ncnc2n1C12CCC(CNC(=O)c3ccnn3C)(CC1)C2 [Example 13, N-((4-(4-Amino-6-ethynyl-5-(quinolin-3-yl)-7H-pyrrolo[2,3-d]pyrimidin-7-yl)bicyclo-[2.2.1]heptan-1-yl)methyl)-1-methyl-1H-pyrazole-5-carboxamide]
IC50 [1]: 0.67 nM | IC50 (human EGFR (WT)): 0.61 nM | IC50 (human EGFR (L858R/C797S)): 0.69 nM | GI50 [2, 4]: 239 nM | GI50 (Ba/F3-EGFR (WT); [5]): 3600 nM

Now from value to molecule:

IC50 [1]: 1.2 nM | IC50 (human EGFR (WT)): 2.4 nM | IC50 (human EGFR (L858R/C797S)): 2.4 nM | GI50 [2, 3]: 110 nM | GI50 (Ba/F3-EGFR (WT); [3]): > 2000 nM
Structure (SMILES): C#Cc1c(-c2cnc3ccccc3c2)c2c(N)ncnc2n1C12CCC(NC(=O)C(F)F)(CC1)C2 [Example 27, N-(4-(4-Amino-6-ethynyl-5-(quinolin-3-yl)-7H-pyrrolo[2,3-d]pyrimidin-7-yl)bicyclo-[2.2.1]heptan-1-yl)-2,2-difluoroacetamide]

IC50 [1]: 0.61 nM | IC50 (human EGFR (WT)): 2.6 nM | IC50 (human EGFR (L858R/C797S)): 0.99 nM | GI50 [2, 3]: 59 nM | GI50 (Ba/F3-EGFR (WT); [3]): > 2000 nM
Structure (SMILES): C#Cc1c(-c2cnc3ccccc3c2)c2c(N)ncnc2n1C12CCC(NC(=O)c3noc(C)n3)(CC1)C2 [Example 36, N-(4-(4-Amino-6-ethynyl-5-(quinolin-3-yl)-7H-pyrrolo[2,3-d]pyrimidin-7-yl)-bicyclo-[2.2.1]heptan-1-yl)-5-methyl-1,2,4-oxadiazole-3-carboxamide]

IC50 [1]: 264 nM | IC50 (human EGFR (WT)): 1.6 nM | IC50 (human EGFR (L858R/C797S)): 187 nM | GI50 [2, 4]: 3660 nM | GI50 (Ba/F3-EGFR (WT); [5]): 2460 nM
Structure (SMILES): C=CC(=O)N1CC[C@@H](n2cc(-c3cnc4ccccc4c3)c3c(N)ncnc32)C1 [Comparative Example A, (R)-1-(3(4-Amino-5-(quinolin-3-yl)-7H-pyrrolo[2,3-d]pyrimidin-7-yl)pyrrolidin-1-yl) -prop-2-en-1-one, reference compound]
